Where only a bound is given, the exact number is not on record here.

Consider 16 molecules from patent US5359135A, “Triasulfurone compounds” (priority 1990, dated 1994).

Assay type in all cases: binding, mouse (Balb/c)
Common to all, as to conditions: for Cross-reactivity: (triasulfurone conc. for 50% inhibition/analog conc. for 50% inhibition) × 100

The subject of test [1] is MAb 4134-40-1. As to the kind of experiment: competitive ELISA, triasulfurone and analogs with MAb 4134-40-1 (Table 1). An excerpt: (§1) As defined within the context of this invention, the percentage of cross-reactivity is represented by the following equation: [triasulfurone concentration for 50% inhibition (I50)/concentration of the triasulfurone analogs for 50% inhibition (I50)]×100.
(§2) The I50 value can be determined, for example, by means of a competitive ELISA assay (see Example 8). In that case the I50 value corresponds, for example, to the antigen concentration that leads to a 50% inhibition of the binding of the antibody to the carrier-bound antigen.
(§3) The detection of triasulfurone is effected by means of a two-step competitive ELISA test.
(§4) BSA-conjugated hapten, prepared in accordance with Example 1.3.1 or 1.3.2, in a 50mM sodium carbonate buffer (pH 9.6) (200 ng of BSA-conjugated hapten/100 μl of sodium carbonate buffer) is first of all adsorbed on microtitre plates (for example Dynatech, type M 129A) and incubated overnight at a temperature of 4° C. The plates are then washed five times with PBS buffer enriched with 0.1% (v/v) polysorbate 20 (Tween 20) (PBS Tween).
(§5) The remaining free binding sites of the solid carder material are then blocked by the addition of PBS-BSA in the form of a 1% (w/v) solution. After incubation for two hours at 22° C. the plates are washed again with PBS Tween (0.1%).
(§6) 50 μl of the supernatant of the previously cloned hybridoma cells (in a dilution of 1:2000 or 1:4000) or 50 μl of the previously purified monoclonal antibodies (40-120 ng/ml) are incubated a) with 950 μl of a standard solution containing an increasing amount of triasulfurone or of triasulfurone analogs, b) with triasulfurone-containing water samples or c) with triasulfurone-containing soil extracts. [All dilutions are carried out in PBS Tween (0.1%)].
(§7) After an incubation period of 1 hour at room temperature (22° C.), 200 μl of the antigen/antibody mixture are added to each well in the microtitre plate and the whole batch is incubated for a further one hour. The wells are then washed five times with PBS Tween (0.1%) and charged with 100 μl/well of goat anti-mouse IgG antibody that is conjugated to alkaline phosphatase (dilution 1:1500), and incubated for a period of 1.5 hours.
(§8) After washing again, 150 μl/well of the substrate p-nitrophenyl phosphate dissolved in 1 mg/ml of diethanolamine buffer ([…], pH 9.8, enriched with 0.5 mM MgCl2 ×6H2 O) are added to the wells.
(§9) The intensity of the colour reaction that has occurred is determined at a wavelength of 405 nm. […] All the samples are determined in triplicate.
(§10) In order to determine the amount of triasulfurone present in a sample, first of all a calibration curve is produced (FIG. 1), B/Bo×100 being plotted against the concentration of inhibitor. (Bo represents the absorption capacity measured without the addition of a triasulfurone inhibitor to the antibody, and B is the absorption capacity when triasulfurone inhibitors at various concentrations are added). The I50 value indicates the concentration of the antigen at which the binding of antibody to the solid phase is inhibited by 50%. The I50 value is determined using an ENZFITTER (Leatherbarrow, Elsevier-Biosoft) curve-calculation program based on a four-parameter logistical curve (Raab GM, 1983) and specially adapted to the prevailing conditions. The quantitative determination of triasulfurone in soil or water samples within the context of ELISA is also carried out using the ENZFITTER program, the adaptation of the curve being based on standards that run on any microtitre plate.

Test [2] concerns MAb 4147-19-4. As to the kind of experiment: competitive ELISA, triasulfurone and analogs with MAb 4147-19-4 (Table 1).
From the text: as §1, §2, §3, §4, §5, §6, §7, §8, §9, §10

In test [3] the test system is MAb 4149-1-1. As to the kind of experiment: competitive ELISA, triasulfurone and analogs with MAb 4149-1-1 (Table 1).
From the text: as §1, §2, §3, §4, §5, §6, §7, §8, §9, §10

As for `COc1nc(C)nc(NC(N)=O)n1` [F], the “I50 (inhibitor concentration that reduces the ELISA signal by 50% in comparison to the control)” value in test [1], in test [2] and in test [3] was more than 1000 ng/mL each time. Moreover, the values for the Cross-reactivity in test [1], in test [2] and in test [3] were less than 0.7%, less than 0.01% and less than 0.01%, respectively.
As for `COc1cc(OC)nc(NC(=O)NS(=O)(=O)c2ncccc2C(=O)N(C)C)n1` [P, nicosulfurone-methyl], the “I50 (inhibitor concentration that reduces the ELISA signal by 50% in comparison to the control)” value in test [1], in test [2] and in test [3] was more than 1000 ng/mL each time. For the same molecule, the Cross-reactivity is on record as less than 0.7% in test [1], less than 0.01% in test [2] and less than 0.01% in test [3].
Turning to `COC(=O)c1ccccc1CS(=O)(=O)NC(=O)Nc1nc(OC)cc(OC)n1` [N, bensulfurone-methyl], the “I50 (inhibitor concentration that reduces the ELISA signal by 50% in comparison to the control)” value in test [1], in test [2] and in test [3] was more than 1000 ng/mL throughout. Further, the Cross-reactivity in test [1] is less than 0.7%; in test [2] it was less than 0.01%; in test [3], less than 0.01%.
With `COc1nc(C)nc(NC(=O)NS(=O)(=O)c2ccccc2OCCCl)n1` [triasulfurone, 3-(6-methoxy-4-methyl-1,3,5-triazin-2-yl)-1-[2-(2-chloroethoxy)-phenylsulfonyl]-urea], the “I50 (inhibitor concentration that reduces the ELISA signal by 50% in comparison to the control)” value in test [1] is 7.2 ng/mL; in test [2], 0.09 ng/mL; in test [3], 0.05 ng/mL. Further, the Cross-reactivity in test [1], in test [2] and in test [3] was 100.0% each time.
On to `COC(=O)c1ccccc1S(=O)(=O)NC(=O)N(C)c1nc(C)nc(OC)n1` [K, tribenurone-methyl], for which the “I50 (inhibitor concentration that reduces the ELISA signal by 50% in comparison to the control)” value in test [1], in test [2] and in test [3] was more than 1000 ng/mL throughout. Further, the values for the Cross-reactivity in test [1], in test [2] and in test [3] were less than 0.7%, less than 0.01% and less than 0.01%, respectively.
As to `CCS(=O)(=O)c1cccnc1S(=O)(=O)NC(=O)Nc1nc(OC)cc(OC)n1` [Q], the “I50 (inhibitor concentration that reduces the ELISA signal by 50% in comparison to the control)” value in test [1], in test [2] and in test [3] was more than 1000 ng/mL each time. Also, the Cross-reactivity in test [1] is listed as less than 0.7%; in test [2], less than 0.01%; in test [3], less than 0.01%.
Regarding `COc1nc(C)nc(NC(=O)NS(=O)(=O)c2ccccc2Cl)n1` [M, chlorosulfurone], the “I50 (inhibitor concentration that reduces the ELISA signal by 50% in comparison to the control)” value in test [1] is more than 1000 ng/mL; in test [2] it was 14.3 ng/mL; in test [3], 420 ng/mL. The figures for the Cross-reactivity in test [1], in test [2] and in test [3] were less than 0.7%, 0.6% and 0.01%, respectively.
Regarding `COc1nc(C)nc(NC(=O)NS(=O)(=O)c2ccccc2SCCF)n1` [H], the “I50 (inhibitor concentration that reduces the ELISA signal by 50% in comparison to the control)” value in test [1] came out at 30 ng/mL; in test [2] it was 0.13 ng/mL; in test [3], 16.2 ng/mL. Moreover, the results for the Cross-reactivity in test [1], in test [2] and in test [3] were 24.0%, 69.2% and 0.3%, respectively.
Turning to `NS(=O)(=O)c1cc(O)ccc1OCCCl` [E], the “I50 (inhibitor concentration that reduces the ELISA signal by 50% in comparison to the control)” value in test [1], in test [2] and in test [3] was more than 1000 ng/mL in each case. Further, the results for the Cross-reactivity in test [1], in test [2] and in test [3] were less than 0.7%, less than 0.01% and less than 0.01%, respectively.
In the case of `COC(=O)c1ccccc1S(=O)(=O)NC(=O)Nc1nc(C)cc(C)n1` [J, sulfometurone-methyl], the “I50 (inhibitor concentration that reduces the ELISA signal by 50% in comparison to the control)” value in test [1], in test [2] and in test [3] was more than 1000 ng/mL throughout. The Cross-reactivity in test [1] is given as less than 0.7%; in test [2], less than 0.01%; in test [3], less than 0.01%.
On to `COC(=O)c1ccccc1S(=O)(=O)NC(=O)Nc1nc(OC(F)F)cc(OC(F)F)n1` [I, primisulfurone], for which the “I50 (inhibitor concentration that reduces the ELISA signal by 50% in comparison to the control)” value in test [1], in test [2] and in test [3] was more than 1000 ng/mL each time. Moreover, the Cross-reactivity in test [1] is given as less than 0.7%; in test [2], less than 0.01%; in test [3], less than 0.01%.
Turning to `CCN(CC)C(=O)NS(=O)(=O)c1ccccc1OCCCl` [T], the figures for the “I50 (inhibitor concentration that reduces the ELISA signal by 50% in comparison to the control)” value in test [1], in test [2] and in test [3] were 0.9 ng/mL, 17.6 ng/mL and 0.01 ng/mL, respectively. Further, the Cross-reactivity in test [1] was 800.0%; in test [2], 0.5%; in test [3], 500.00%.
With `NS(=O)(=O)c1ccccc1OCCO` [D], the “I50 (inhibitor concentration that reduces the ELISA signal by 50% in comparison to the control)” value in test [1], in test [2] and in test [3] was more than 1000 ng/mL in each case. The results for the Cross-reactivity in test [1], in test [2] and in test [3] were less than 0.7%, less than 0.01% and less than 0.01%, respectively.
Consider `NS(=O)(=O)c1ccccc1OCCCl` [C], for which the “I50 (inhibitor concentration that reduces the ELISA signal by 50% in comparison to the control)” value in test [1] was more than 1000 ng/mL; in test [2] it was more than 1000 ng/mL; in test [3] it was 1000 ng/mL. For the same molecule, the Cross-reactivity in test [1] is less than 0.7%; in test [2], less than 0.01%; in test [3], less than 0.01%.
Turning to `COC(=O)c1sccc1S(=O)(=O)NC(=O)Nc1nc(C)nc(OC)n1` [L, thiameturone-methyl], the “I50 (inhibitor concentration that reduces the ELISA signal by 50% in comparison to the control)” value is more than 1000 ng/mL in test [1], 14.2 ng/mL in test [2] and more than 1000 ng/mL in test [3]. Also, the Cross-reactivity was less than 0.7% in test [1], 0.6% in test [2] and less than 0.01% in test [3].
Consider `COc1nc(C)nc(NC(=O)NS(=O)(=O)c2ccc(O)cc2OCCCl)n1` [B], for which the “I50 (inhibitor concentration that reduces the ELISA signal by 50% in comparison to the control)” value in test [1] is more than 1000 ng/mL; in test [2], 85 ng/mL; in test [3], 0.04 ng/mL. The Cross-reactivity in test [1] is less than 0.7%; in test [2], 0.1%; in test [3], 125.0%.
